The assay deals with Tyrosine-protein kinase BTK (Homo sapiens, UniProt Q06187). The experiment in a line: In Vitro Assay for the Inhibition of BTK Kinase Activity: 1: Test Principle:Mobility-Shift Assay, which is microfluidic chip technology, applies the basic concept of capillary electrophoresis to microfluidic environments. The substrate used for the experiment is a polypeptide with a fluorescent label. Under the action of enzyme in the reaction system, the substrate is transformed into a product, and the charge the substrate carries also changes accordingly. The use of the charge difference between the substrate and the product involved in Mobility-Shift Assay achieves the separating of the two, and they are tested respectively.

In general, IC50 refers to the point on the concentration scale where inhibition reaches its midpoint.

Tyrosine-protein kinase BTK, sequence (Q06187 whole entry): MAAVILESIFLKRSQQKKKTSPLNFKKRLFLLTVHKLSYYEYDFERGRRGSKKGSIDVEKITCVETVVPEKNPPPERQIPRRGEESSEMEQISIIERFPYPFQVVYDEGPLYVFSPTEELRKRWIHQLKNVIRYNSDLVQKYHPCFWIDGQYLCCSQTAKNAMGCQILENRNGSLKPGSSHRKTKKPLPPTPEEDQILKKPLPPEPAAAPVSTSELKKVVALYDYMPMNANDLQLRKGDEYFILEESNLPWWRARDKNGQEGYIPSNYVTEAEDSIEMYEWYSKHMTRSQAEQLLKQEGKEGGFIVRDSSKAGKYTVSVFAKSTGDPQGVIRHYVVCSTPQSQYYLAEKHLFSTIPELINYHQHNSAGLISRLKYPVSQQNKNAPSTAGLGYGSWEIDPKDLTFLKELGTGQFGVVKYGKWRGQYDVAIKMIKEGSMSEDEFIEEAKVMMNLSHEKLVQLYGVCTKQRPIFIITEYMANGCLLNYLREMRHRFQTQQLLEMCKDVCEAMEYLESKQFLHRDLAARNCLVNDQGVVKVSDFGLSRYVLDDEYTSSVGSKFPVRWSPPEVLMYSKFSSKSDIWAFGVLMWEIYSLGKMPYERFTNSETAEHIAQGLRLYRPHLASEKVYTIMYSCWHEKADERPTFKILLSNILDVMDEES

With `C=CC(=O)N1CC2CCCC2C1c1nc(-c2ccc(C(=O)Nc3ccccn3)cc2)c2c(N)nccn12` (stereo unspecified), the IC50 is 4.7 nM.

Values taken from ChEMBL document CHEMBL5728008, “Compound used as Bruton's tyrosine kinase inhibitor and preparation method and application thereof” (2020).
